Test results taken from article PMC5681922, “Systemic Responses of Multidrug-Resistant Pseudomonas aeruginosa and Acinetobacter baumannii Following Exposure to the Antimicrobial Peptide Cathelicidin-BF Imply Multiple Intracellular Targets” (Frontiers in Cellular and Infection Microbiology, 2017).
No end group written: not given here.

System: P. aeruginosa 1409
Test: Minimal inhibitory concentration (given as multiples of MIC)
Assay type: cell-based, Pseudomonas aeruginosa
Conditions: MDR clinical isolate; MIC itself not given, only this multiple

## KFFRKLKKSVKKRAKEFFKKPRVIGVSIPF [cathelicidin-BF]
  4 × MIC: 32 µg/mL
